Reference: US20160228452A1, “TREATMENT OF METABOLIC DISEASES BY INHIBTION OF HTR2A OR HTR3” (Korea Advanced Institute of Science and Technology, priority 2014, published 2016)

Experiments:
[1] = molecular target: T1, Htr3 (Mus musculus, UniProt P23979); assay: cAMP assay (competitive ELISA) in immortalized brown adipocytes; type: cell-based; conditions: IBAs, 1 uM ondansetron or 100 nM m-CPBG, 15 min
T1 construct: we explored the direct actions of Htr3 on BAT using immortalized brown adipocytes (IBAs); endogenous in cells; host or cells: differentiated immortalized brown adipocytes (IBAs)
T1 sequence (P23979 24-489): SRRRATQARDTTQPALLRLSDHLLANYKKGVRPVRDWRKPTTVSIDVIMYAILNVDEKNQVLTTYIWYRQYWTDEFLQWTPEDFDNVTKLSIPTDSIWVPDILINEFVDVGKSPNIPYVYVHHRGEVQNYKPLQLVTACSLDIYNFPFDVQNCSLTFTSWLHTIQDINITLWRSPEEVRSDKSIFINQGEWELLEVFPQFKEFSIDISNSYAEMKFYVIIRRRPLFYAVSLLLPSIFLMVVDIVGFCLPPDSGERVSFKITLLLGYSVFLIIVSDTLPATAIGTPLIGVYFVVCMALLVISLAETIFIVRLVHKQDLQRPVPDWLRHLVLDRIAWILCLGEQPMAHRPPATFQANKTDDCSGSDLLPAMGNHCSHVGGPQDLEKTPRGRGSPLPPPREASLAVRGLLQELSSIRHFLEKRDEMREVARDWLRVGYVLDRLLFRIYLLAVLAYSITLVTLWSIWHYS
T1 sequence (Q9JHJ5 22-437 partner): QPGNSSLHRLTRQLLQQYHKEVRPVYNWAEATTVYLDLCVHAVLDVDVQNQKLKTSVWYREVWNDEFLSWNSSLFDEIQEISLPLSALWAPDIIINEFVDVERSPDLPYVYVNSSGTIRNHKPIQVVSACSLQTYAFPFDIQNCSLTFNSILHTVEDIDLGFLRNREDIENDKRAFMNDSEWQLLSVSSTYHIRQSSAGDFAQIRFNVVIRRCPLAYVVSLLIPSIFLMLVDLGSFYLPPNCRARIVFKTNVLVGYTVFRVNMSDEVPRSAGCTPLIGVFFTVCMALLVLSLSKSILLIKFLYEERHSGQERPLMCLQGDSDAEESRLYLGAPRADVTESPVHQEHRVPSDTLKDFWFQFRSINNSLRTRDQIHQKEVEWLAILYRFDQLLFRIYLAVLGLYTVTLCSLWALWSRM
Experimental: (§1) IBAs were cultured in DMEM supplemented with 10% FBS and P/S in a humidified atmosphere of 5% CO2 at 37° C.^32. After reaching 95% confluence, the cells were induced to differentiate using DMEM with 10% FBS, 0.5 μg/mL insulin, 1 nM T3, 0.125 mM indomethacin, 2 μg/mL dexamethasone, 0.5 μM IBMX and P/S (day 0). After two days, the medium was replaced with DMEM supplemented with 10% FBS, 0.5 μg/mL insulin, 1 nM T3 and P/S (day 2), and it was changed every two days from days 4 to 8. We confirmed that these cell lines are free from Mycoplasma infection.
Differentiated IBAs were treated with 1 uM ondansetron or 100 nM m-CPBG or 1 uM CL-316243 for 15 min. 1 uM […] was used as a positive control. The cAMP competitive ELISA (Promega) was performed according to the manufacturer's instruction. Briefly, cAMP was extracted by adding 0.1 M HCl with 0.5% triton X-100 to the cells. After centrifugation at 600 g for 10 min, the supernatant was used for the determination of cAMP levels by competitive cAMP ELISA.

[2] = molecular target: T1, Htr3; assay: Western blot for phosphorylation of PKA pathway components in IBAs; type: cell-based; conditions: IBAs, Htr3 agonist treatment
Experimental: as §1
Whole-cell lysates were extracted by incubating cells in RIPA buffer (25 mM Tris-HCl pH 7.6, 150 mM NaCl, 1% NP-40, 1% sodium deoxycholate, 0.1% SDS) plus protease inhibitors (Roche). Supernatant was collected following a brief centrifuge, and protein concentrations in the supernatant were determined using the BCA Protein Assay Kit (Thermo Scientific, Rockford, Ill., USA). The cell lysates were then mixed with equal volumes of 2× Laemmli buffer (4% SDS, 20% glycerol, 10% 2-mercaptoethanol, 0.01% bromophenol blue, and 120 mM Tris-HCl, pH 6.8) and boiled for 5 min at 95° C. Then, the protein samples were separated by SDS-PAGE and transferred to a PVDF membrane (Millipore). […]

[3] = molecular target: T1, Htr3; assay: Real-time PCR of thermogenic genes in IBAs; type: cell-based; conditions: 2 h after Htr3 agonist treatment
Experimental: as §1
Total RNA was extracted from the mouse tissues or cell lines using TRIzol reagent (Invitrogen) according to the manufacturer's protocol. After TURBO DNase (Invitrogen) treatment, 2 μg of total RNA was used to generate complementary DNA with Superscript III reverse transcriptase (Invitrogen). To analyze gene expression, real-time PCR was performed with a ViiA 7 Real-Time PCR system (Applied Biosystems) and the Power SYBR Green PCR master mix (Applied Biosystems). Relative quantification was based on the ddCt method, and ActB was used as an endogenous control (internal control).

[4] = Glucose tolerance test and insulin tolerance test; type: in vivo, mice; conditions: LP-533401 30 mg/kg orally, 10 weeks, HFD-fed mice vs HFD-fed control
Experimental: For the glucose tolerance tests, the mice were administered 2 g/kg D-glucose in PBS after overnight fasting. For the insulin tolerance tests, the mice were intraperitoneally injected with insulin (0.75 U/kg) after being fasted for 4 h. The blood glucose levels in blood samples obtained from tail veins 0, 15, 30, 45, 60, 90 and 120 min after injection were measured using a Gluco DR Plus glucometer (Allmedicus).

[5] = reference 18; cited from earlier work
[6] = High-fat-diet-induced obesity in mice: growth curves, body weight and eWAT mass; type: in vivo; conditions: LP-533401 30 mg/kg orally daily, 10 weeks, SCD or HFD
Text: The generation of Tph^flox/flox mice, Adipoq-cre mice, and aP2-CreERT2 mice has previously been reported^17,30,31. C57BL/6J mice, Htr3a-targeted KO mice (B6.129X1-Htr3a^tm1jul/J, Htr3a KO) and leptin-deficient ob/ob mice (B6.V-Lep^ob/J) were purchased from the Jackson Laboratory (Bar Harbor, Me., USA). To create the adipose tissue-specific Tph1 KO mice, Tph1^flox/flox mice were crossed with Adipoq-Cre mice (Tph1 FKO mice) and aP2-CreERT2 mice (Tph1 AFKO mice). The mice were housed in climate-controlled, specific pathogen-free (SPF) barrier facilities under a 12-h light-dark cycle, and chow and water were provided ad libitum. The Institutional Animal Care and Use Committee at the Korea Advanced Institute of Science and Technology approved the experimental protocols for this study. Htr3a KO mice and Tph1^flox/flox mice were backcrossed with C57BL/6J mice for more than 10 generations. Cre-recombination of 6-week-old Tph1 AFKO mice was induced by intraperitoneal (IP) injection of 5 doses of 2 mg of tamoxifen (Sigma) for 1 week. We fed male mice (aged 8˜10 weeks) either on SCD (standard chow diet; 12% fat calories, Purina Laboratory Rodent Diets 38057) or HFD (60% fat calories, Research Diets D12492). PBS or 300 mg/kg PCPA was administered as a daily intraperitoneal injection. LP-533401 was dissolved in PEG-400 and 5% dextrose (40:60 ratio). Vehicle or 30 mg/kg LP-533401 was administered daily with a feeding needle. We randomly divided C57BL/6J mice into 2-4 groups. For transgenic mice, we compared data between KO mice and their WT littermates. No blinding was done.

SMILES	cAMP level in the absence of β3AR agonist [1]	phosphorylation of HSL and PKA substrate [2]	Ucp1 mRNA level [3]	glucose tolerance (IPGTT) [4]	crossing of the blood-brain barrier [5]	anti-obesity effects (growth curves) [6]
N=C(N)NC(=N)Nc1cccc(Cl)c1 [m-CPBG, 1-(m-chlorophenyl)-biguanide]	did not affect cAMP levels	decreased	decreased	–	–	–
Nc1nc(OC(c2ccc(-c3cccc(F)c3)cc2)C(F)(F)F)cc(-c2ccc(C[C@H](N)C(=O)O)cc2)n1 (stereo partly drawn) [LP-533401]	–	–	–	improved glucose tolerance	cannot cross the blood-brain barrier	also observed
